Key:
[1] = Tissue distribution of [125I]- labelled compound in mice atria in 24 hours; format: functional
[2] = Tissue distribution of [125I]- labelled compound in mice atria in 4 hours; format: functional
[3] = Tissue distribution of [125I]- labelled compound in mice blood in 0.5 hours; format: functional, tissue-based
[4] = Tissue distribution of [125I]- labelled compound in mice blood in 24 hours; format: functional, tissue-based
[5] = (§1) Tissue distribution of [125I]- labelled compound in mice blood in 4 hours; format: functional, tissue-based
[6] = Tissue distribution of [125I]- labelled compound in mice cerebellum in 0.5 hr; format: functional, tissue-based
[7] = Tissue distribution of [125I]- labelled compound in mice ventricles in 0.5 hr; format: functional
[8] = Tissue distribution of [125I]- labelled compound in mice ventricles in 4 hours; format: functional
[9] = Tissue distribution of [125I]- labelled compound in mice […] in 24 hours; format: functional
[10] = Tissue distribution of [125I]- labelled compound in mice […] in 4 hours; format: functional
[11] = Tissue distribution of [125I]- labelled compound in mice latria in 0.5 hr; format: functional
[12] = Tissue distribution of [125I]- labelled compound in mice liver in 0.5 hr; format: functional, tissue-based
[13] = Tissue distribution of [125I]- labelled compound in mice liver in 24 hours; format: functional, tissue-based
[14] = Tissue distribution of [125I]- labelled compound in mice liver in 4 hours; format: functional, tissue-based
[15] = Tissue distribution of [125I]- labelled compound in mice lung in 0.5 hr; format: functional, tissue-based
[16] = Tissue distribution of [125I]- labelled compound in mice lung in 24 hours; format: functional, tissue-based
[17] = Tissue distribution of [125I]- labelled compound in mice lung in 4 hours; format: functional, tissue-based
[18] = Tissue distribution of [125I]- labelled compound in mice striatum in 0.5 hours; format: functional, tissue-based
[19] = Tissue distribution of [125I]- labelled compound in mice striatum in 24 hours; format: functional, tissue-based
[20] = Tissue distribution of [125I]- labelled compound in mice striatum in 4 hours; format: functional, tissue-based
[21] = Tissue distribution of [125I]- labelled compound in mice ventricle in 24 hours; format: functional
[22] = Tissue distribution of [125I]- labelled compound in mice cerebellum in 24 hours; format: functional, tissue-based
[23] = Tissue distribution of [125I]- labelled compound in mice cerebellum in 4 hours; format: functional, tissue-based
[24] = Tissue distribution of [125I]- labelled compound in mice cortex in 0.5 hours; format: functional, tissue-based
[25] = Tissue distribution of [125I]- labelled compound in mice cortex in 24 hours; format: functional, tissue-based
[26] = Tissue distribution of [125I]- labelled compound in mice cortex in 4 hours; format: functional, tissue-based
[27] = Tissue distribution of [125I]- labelled compound in mice hippocampus in 0.5 hours; format: functional, tissue-based
[28] = Tissue distribution of [125I]- labelled compound in mice hippocampus in 24 hours; format: functional, tissue-based
[29] = Tissue distribution of [125I]- labelled compound in mice hippocampus in 4 hours; format: functional, tissue-based
[30] = Tissue distribution of [125I]- labelled compound in mice […] in 0.5 hours; format: functional
[31] = Tissue distribution of [125I]- labelled compound in mice atria in 0.5 hr; format: functional
Mus musculus = species on record: Mus musculus; assay: as §1; format: ADME, organism-based; details: in vivo

SMILES | Dose/g [2] | Dose/g [3] | Dose/g [5] | Dose/g [6] | Dose/g [7] | Dose/g [8] | Dose/g [10] | Dose/g [11] | Dose/g [12] | Dose/g [14] | Dose/g [15] | Dose/g [17] | Dose/g [18] | Dose/g [20] | Dose/g [23] | Dose/g [24] | Dose/g [26] | Dose/g [27] | Dose/g [29] | Dose/g [30] | other results
O[C@@H]1Cc2ccc(I)cc2C[C@H]1N1CCC(c2ccccc2)CC1 | 0.97% | 1.06% | 0.51% | 2.05% | 1.34% | 0.53% | 0.68% | 2.09% | 18% | 6.33% | 3.39% | 0.89% | 3.9% | 3.07% | 0.29% | 2.99% | 1.28% | 2.73% | 1.03% | 2.51% | Dose/g [1]: 0.1%; Dose/g [4]: 0.05%; Dose/g [9]: 0.1%; Dose/g [13]: 0.88%; Dose/g [16]: 0.1%; Dose/g [19]: 0.76%; Dose/g [21]: 0.1%; Dose/g [22]: 0.05%; Dose/g [25]: 0.22%; Dose/g [28]: 0.16%
O[C@@H]1Cc2cc(I)ccc2C[C@H]1N1CCC(c2ccccc2)CC1 | 2.45% | 1.13% | 0.47% | 2.06% | 3.29% | 1.77% | 1.42% |  | 19.3% | 12.7% | 13.1% | 5.86% | 2.34% | 1.96% | 1.23% | 2.32% | 1.62% | 1.99% | 1.27% | 2.16% | Dose/g [31]: 4.37%; Dose/g [1]: 0.77%; Dose/g [4]: 0.09%; Dose/g (Mus musculus): 0.47%; Dose/g [9]: 1.35%; Dose/g [13]: 6.48%; Dose/g [16]: 1.74%; Dose/g [19]: 2.32%; Dose/g [21]: 0.27%; Dose/g [22]: 1.06%; Dose/g [25]: 1.74%; Dose/g [28]: 1.48%
O[C@@H]1Cc2ccccc2C[C@H]1N1CCC(c2ccc(I)cc2)CC1 | 1.35% | 1.85% | 0.66% | 2.33% | 2.9% | 1.88% | 0.28% | 3.03% | 15.4% | 9.12% | 8.86% | 2.95% | 2.68% | 0.33% | 0.28% | 3.01% | 0.32% | 2.91% | 0.31% | 2.73% | 
O[C@@H]1Cc2c(I)cccc2C[C@H]1N1CCC(c2ccccc2)CC1 | 0.34% | 1% | 0.19% | 1.22% | 1.25% | 0.23% |  | 1.64% |  |  |  |  | 1.64% | 0.12% | 0.08% | 1.53% | 0.1% |  |  |  | 
O[C@@H]1Cc2cccc(I)c2C[C@H]1N1CCC(c2ccccc2)CC1 | 1.43% | 0.82% | 0.53% | 1.28% | 1.27% | 0.31% | 0.61% | 1.73% | 11% | 5.92% | 7.57% | 1.11% | 3.81% | 3.3% | 0.21% | 2.29% | 1.17% | 2.09% | 1.06% | 1.69% | Dose/g [1]: 0.82%; Dose/g [4]: 0.04%; Dose/g [9]: 0.42%; Dose/g [13]: 0.89%; Dose/g [16]: 0.09%; Dose/g [19]: 2.2%; Dose/g [21]: 0.06%; Dose/g [22]: 0.05%; Dose/g [25]: 0.88%; Dose/g [28]: 0.71%

— ChEMBL document CHEMBL1129611, “Vesamicol receptor mapping of brain cholinergic neurons with radioiodine-labeled positional isomers of benzovesamicol” (J Med Chem, 1996)
